Experimental data reported in ChEMBL document CHEMBL4028887, “Improvement of Cell Permeability of Human Neuronal Nitric Oxide Synthase Inhibitors Using Potent and Selective 2-Aminopyridine-Based Scaffolds with a Fluorobenzene Linker” (J Med Chem, 2017).

Legend:
Nitric oxide synthase 1 [1] = molecular target: Nitric oxide synthase 1 (Rattus norvegicus, UniProt P29476)
[2] = molecular target: T1, Nitric oxide synthase, inducible (Mus musculus, UniProt P29477)
T1 sequence (P29477 whole entry): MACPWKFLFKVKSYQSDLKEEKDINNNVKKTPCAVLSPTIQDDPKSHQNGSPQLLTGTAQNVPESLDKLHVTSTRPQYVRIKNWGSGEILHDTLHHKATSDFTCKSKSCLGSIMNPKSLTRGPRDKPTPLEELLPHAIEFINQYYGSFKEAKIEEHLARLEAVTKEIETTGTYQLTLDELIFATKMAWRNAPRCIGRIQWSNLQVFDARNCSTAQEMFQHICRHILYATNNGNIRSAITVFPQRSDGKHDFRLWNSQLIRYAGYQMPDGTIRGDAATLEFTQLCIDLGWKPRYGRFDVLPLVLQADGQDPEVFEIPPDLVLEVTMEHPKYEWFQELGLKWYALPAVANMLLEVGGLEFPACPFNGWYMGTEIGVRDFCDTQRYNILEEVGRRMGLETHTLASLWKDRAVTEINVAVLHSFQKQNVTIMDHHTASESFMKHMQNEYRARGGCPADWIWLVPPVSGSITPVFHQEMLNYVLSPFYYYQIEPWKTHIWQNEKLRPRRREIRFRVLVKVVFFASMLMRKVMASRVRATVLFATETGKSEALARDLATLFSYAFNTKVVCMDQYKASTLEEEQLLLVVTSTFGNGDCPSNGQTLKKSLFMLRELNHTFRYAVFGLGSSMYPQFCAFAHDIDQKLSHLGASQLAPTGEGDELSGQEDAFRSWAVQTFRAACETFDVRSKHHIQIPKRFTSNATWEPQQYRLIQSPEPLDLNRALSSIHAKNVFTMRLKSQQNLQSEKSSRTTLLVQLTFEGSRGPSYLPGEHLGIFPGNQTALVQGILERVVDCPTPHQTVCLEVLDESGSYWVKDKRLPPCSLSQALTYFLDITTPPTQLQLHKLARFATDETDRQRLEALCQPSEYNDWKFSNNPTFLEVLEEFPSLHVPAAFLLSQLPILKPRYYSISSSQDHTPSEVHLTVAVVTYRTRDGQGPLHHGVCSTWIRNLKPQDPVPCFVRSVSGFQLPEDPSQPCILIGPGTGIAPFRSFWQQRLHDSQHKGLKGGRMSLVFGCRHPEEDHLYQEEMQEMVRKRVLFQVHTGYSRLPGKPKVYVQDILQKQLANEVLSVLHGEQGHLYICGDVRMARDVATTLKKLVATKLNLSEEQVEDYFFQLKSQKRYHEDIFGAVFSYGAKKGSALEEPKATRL

Nitric oxide synthase 3 = molecular target: T2, Nitric oxide synthase 3 (Homo sapiens, UniProt P29474); format: ADME
T2 sequence (P29474 whole entry): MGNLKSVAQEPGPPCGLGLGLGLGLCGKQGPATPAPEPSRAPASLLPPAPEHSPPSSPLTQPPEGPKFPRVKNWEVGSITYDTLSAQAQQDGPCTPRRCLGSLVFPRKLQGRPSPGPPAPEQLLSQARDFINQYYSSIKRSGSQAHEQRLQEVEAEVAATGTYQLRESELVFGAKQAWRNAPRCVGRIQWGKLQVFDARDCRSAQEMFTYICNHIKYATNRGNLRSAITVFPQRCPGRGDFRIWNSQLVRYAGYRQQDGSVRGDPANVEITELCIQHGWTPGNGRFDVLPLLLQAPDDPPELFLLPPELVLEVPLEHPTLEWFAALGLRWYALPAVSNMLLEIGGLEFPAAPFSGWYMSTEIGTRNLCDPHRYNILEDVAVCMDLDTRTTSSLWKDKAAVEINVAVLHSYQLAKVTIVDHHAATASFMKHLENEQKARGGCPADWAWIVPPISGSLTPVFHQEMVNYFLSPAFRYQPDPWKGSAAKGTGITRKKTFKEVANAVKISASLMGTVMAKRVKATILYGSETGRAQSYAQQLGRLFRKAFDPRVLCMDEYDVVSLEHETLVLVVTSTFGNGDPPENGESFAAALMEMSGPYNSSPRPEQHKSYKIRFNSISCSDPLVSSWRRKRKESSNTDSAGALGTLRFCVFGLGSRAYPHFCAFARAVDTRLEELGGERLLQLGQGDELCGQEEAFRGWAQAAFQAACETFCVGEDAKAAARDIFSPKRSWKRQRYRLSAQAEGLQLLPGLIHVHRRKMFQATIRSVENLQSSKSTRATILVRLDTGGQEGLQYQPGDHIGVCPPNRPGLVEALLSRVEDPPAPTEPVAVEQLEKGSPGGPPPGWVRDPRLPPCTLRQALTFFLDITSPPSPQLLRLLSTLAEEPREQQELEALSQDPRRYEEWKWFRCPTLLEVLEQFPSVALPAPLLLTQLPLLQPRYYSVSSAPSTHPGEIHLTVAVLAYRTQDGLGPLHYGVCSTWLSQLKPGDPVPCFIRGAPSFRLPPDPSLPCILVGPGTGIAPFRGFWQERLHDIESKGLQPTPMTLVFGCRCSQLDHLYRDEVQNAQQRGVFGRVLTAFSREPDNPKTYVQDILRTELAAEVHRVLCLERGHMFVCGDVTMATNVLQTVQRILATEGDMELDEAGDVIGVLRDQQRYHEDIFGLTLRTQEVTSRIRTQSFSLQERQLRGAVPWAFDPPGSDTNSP

Nitric oxide synthase 1 [3] = molecular target: Nitric oxide synthase 1 (Homo sapiens, UniProt P29475); assay: Inhibition of human neuronal NOS expressed in Escherichia coli using L-arginine as substrate assessed as reduction in NO production by measuring oxidation of oxyHb to metHb measured for 6 mins by hemoglobin- NO capture assay
Nitric oxide synthase 1 (Homo sapiens, UniProt P29475), sequence (P29475 whole entry): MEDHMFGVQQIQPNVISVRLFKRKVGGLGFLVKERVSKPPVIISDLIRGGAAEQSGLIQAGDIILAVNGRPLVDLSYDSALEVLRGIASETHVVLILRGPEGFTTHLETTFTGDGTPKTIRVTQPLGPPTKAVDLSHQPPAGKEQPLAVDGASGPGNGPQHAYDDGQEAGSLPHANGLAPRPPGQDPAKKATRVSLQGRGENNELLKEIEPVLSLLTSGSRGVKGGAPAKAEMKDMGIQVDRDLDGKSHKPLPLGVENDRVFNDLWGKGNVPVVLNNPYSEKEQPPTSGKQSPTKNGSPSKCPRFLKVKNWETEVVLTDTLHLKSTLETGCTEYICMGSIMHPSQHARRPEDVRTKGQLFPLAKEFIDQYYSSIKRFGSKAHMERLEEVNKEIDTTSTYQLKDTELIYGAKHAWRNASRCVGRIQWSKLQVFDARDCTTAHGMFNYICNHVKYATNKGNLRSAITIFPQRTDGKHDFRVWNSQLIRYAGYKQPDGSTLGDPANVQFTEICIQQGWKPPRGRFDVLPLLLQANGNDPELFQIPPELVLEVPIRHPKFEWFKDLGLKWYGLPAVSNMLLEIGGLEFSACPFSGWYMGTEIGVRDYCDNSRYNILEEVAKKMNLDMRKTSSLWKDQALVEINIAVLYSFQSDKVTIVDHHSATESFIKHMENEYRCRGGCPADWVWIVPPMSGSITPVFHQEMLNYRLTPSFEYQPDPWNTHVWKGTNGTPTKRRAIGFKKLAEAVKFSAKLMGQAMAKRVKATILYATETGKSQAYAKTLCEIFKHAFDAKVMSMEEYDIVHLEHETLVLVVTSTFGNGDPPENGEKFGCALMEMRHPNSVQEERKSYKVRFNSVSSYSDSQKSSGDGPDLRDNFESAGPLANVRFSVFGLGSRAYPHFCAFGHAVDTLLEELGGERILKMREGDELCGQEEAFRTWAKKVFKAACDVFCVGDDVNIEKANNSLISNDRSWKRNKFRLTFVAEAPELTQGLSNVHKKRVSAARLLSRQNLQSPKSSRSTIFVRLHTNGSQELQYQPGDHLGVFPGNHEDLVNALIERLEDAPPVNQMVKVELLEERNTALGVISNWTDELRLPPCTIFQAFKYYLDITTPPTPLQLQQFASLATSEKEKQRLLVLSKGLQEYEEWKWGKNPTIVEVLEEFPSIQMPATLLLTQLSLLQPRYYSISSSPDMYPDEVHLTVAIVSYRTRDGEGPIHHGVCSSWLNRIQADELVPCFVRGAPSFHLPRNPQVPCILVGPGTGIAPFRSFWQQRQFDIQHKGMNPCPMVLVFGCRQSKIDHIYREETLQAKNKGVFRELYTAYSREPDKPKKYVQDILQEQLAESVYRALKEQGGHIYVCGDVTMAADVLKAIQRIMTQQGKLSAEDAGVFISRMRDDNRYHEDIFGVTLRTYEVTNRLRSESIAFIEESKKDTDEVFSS

physchem = details: PAMPA
Description: Effective permeability of compound at 200 uM after 17 hrs by PAMPA-BBB assay

Nitric oxide synthase 1 (Rattus norvegicus, UniProt P29476), sequence (P29476 whole entry): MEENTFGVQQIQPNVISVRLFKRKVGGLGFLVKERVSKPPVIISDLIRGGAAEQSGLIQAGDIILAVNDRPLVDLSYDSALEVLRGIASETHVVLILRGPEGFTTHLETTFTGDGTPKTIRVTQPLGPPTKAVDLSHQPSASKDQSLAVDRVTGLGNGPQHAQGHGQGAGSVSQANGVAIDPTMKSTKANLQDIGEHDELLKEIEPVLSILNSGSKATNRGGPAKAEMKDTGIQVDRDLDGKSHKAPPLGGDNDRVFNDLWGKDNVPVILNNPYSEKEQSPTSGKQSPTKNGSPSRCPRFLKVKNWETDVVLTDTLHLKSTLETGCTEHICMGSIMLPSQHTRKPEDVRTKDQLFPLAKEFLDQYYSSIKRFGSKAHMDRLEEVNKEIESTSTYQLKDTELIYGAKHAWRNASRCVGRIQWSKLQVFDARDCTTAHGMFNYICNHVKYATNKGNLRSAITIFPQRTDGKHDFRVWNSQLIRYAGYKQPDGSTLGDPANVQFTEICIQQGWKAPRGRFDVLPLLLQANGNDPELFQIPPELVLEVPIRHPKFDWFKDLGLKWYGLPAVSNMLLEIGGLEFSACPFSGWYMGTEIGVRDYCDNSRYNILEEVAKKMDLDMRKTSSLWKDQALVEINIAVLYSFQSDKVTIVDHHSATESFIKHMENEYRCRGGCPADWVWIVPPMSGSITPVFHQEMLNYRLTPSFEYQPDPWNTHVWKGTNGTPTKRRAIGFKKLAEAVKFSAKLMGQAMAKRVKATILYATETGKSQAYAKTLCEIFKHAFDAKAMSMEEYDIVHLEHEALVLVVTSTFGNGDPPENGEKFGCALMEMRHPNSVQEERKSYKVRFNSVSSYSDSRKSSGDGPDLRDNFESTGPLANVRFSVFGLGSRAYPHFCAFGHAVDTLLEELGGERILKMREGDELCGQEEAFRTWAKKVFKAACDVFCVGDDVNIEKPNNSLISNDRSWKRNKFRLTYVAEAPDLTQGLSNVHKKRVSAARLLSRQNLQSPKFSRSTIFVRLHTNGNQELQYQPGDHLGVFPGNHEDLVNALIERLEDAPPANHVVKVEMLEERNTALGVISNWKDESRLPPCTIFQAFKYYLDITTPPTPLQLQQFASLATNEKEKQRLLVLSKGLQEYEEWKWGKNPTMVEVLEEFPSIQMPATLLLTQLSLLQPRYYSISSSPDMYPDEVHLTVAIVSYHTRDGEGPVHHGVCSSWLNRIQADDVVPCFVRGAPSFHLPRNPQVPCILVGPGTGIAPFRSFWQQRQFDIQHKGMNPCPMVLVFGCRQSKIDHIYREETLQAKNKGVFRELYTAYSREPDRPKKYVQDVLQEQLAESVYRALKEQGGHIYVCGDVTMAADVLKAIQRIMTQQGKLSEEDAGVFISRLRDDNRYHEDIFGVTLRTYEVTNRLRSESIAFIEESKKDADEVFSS

| SMILES | Ki (Nitric oxide synthase 1 [1]) [nM] | Ki [2] [nM] | Ki (Nitric oxide synthase 3) [nM] | Ki (Nitric oxide synthase 1 [3]) [nM] | Papp at 17 h, 200 µM (physchem) [×10⁻⁶ cm/s] |
| --- | --- | --- | --- | --- | --- |
| CNCCCc1cc(F)cc(CCc2cc(C)cc(N)n2)c1 | 41 | 4650 | 39500 | 65 | – |
| CNc1cccc(-c2cncc(CCc3cc(C)cc(N)n3)c2)c1 | 1700 | 6700 | – | – | – |
| CNCc1cccc(-c2cncc(CCc3cc(C)cc(N)n3)c2)c1 | 47 | 3010 | 8670 | 82 | 5.56 |
| CNCCCc1cc(CCc2cc(C)cc(N)n2)cc(C(F)(F)F)c1 | 346 | 33700 | 51500 | 598 | – |
| Cc1cc(N)nc(CCc2cc(CCCN(C)C)cc(C(F)(F)F)c2)c1 | 541 | 36000 | – | – | – |
| CNCCCc1cccc(CCc2cc(C)cc(N)n2)c1 | 48 | 3610 | 20100 | 55 | 10.4 |
| CNCc1cccc(-c2cc(F)cc(CCc3cc(C)cc(N)n3)c2)c1 | 44 | 3010 | 19400 | 83 | 17.4 |
| Cc1cc(N)nc(CCc2cc(C#N)cc(CCCN(C)C)c2)c1 | 232 | 16400 | – | – | – |
| Cc1cc(N)nc(CCc2cccc(CCCN(C)C)c2)c1 | 60 | 3460 | 20800 | 43 | – |
| CNCCCc1cc(C#N)cc(CCc2cc(C)cc(N)n2)c1 | 252 | 16200 | 42100 | 516 | – |
| CNCc1ccc(-c2cc(F)cc(CCc3cc(C)cc(N)n3)c2)cc1 | 185 | 10900 | 69900 | 362 | – |
| CNCc1ccc(-c2cncc(CCc3cc(C)cc(N)n3)c2)cc1 | 57 | 4210 | – | 100 | – |
